Results reported in US5196510A, “Molecular recognition units” (Cytogen Corporation, priority 1990, dated 1993).
Where two headings read alike, the source gives them in different places. Residues, ends and D or L forms follow the SMILES beside them. No end group written: not given here.

What was measured:
[1] = assay type: in vitro ADME, human; settings: 37° C
Method: A representative peptide designated "Pac-2" of the sequence: […] was labeled with 125-Iodine via standard techniques (Iodobead) (see Markwell, 1982, Anal. Biochem. 125: 427-32). Stability of the labeled peptide, having either an unblocked or blocked amino terminal end, to proteolytic enzymes in plasma was assayed as follows: Labeled peptides were incubated in fresh citrated human platelet-poor plasma in sealed tubes at 37° C. Aliguots were removed at various times and assayed using reverse phase HPLC. Degradation was calculated by loss of the original radioactive peak on a reverse phase HPLC C-6 column using 0-60% acetonitrile in 20 mM Na phosphate, pH, 6.0. Inhibitors of proteolytic enzymes in plasma were used to identify responsible enzyme classes and included: EDTA (metalloenzymes), benzamidine (serine endoproteases), bestatin (aminopeptidases) and leupeptin ([…]).

[2] = test system: thrombus induced in the jugular vein; assay: Rabbit thrombus model biodistribution and gamma camera imaging; assay type: in vivo; settings: for localization to / uptake in the clot in gamma camera images (in words): thrombus in left jugular vein, Tc-99m labeled peptide (FIGS. 3-5)
Method: Two kg or larger white New Zealand rabbits were anesthetised and a thrombus induced in the jugular vein as follows: the jugular vein was surgically exposed, side branches tied off and a segment of about 1 inch in length was clamped off. A silk thread was introduced through the segment with both ends external. Ten units of bovine thrombin in Tris-buffered saline (TBS) pH 7.5 were added by syringe. After 10 minutes, the clamp was removed and the wound closed. After 1 hour, approximately 50 μg of a MRU conjugate which is a fusion peptide labeled with Tc-99m as described in Section 8.1, supra, was injected via the contralateral ear vein. I-125 labeled fibrinogen was subsequently injected as a control in order to assess normal blood clearance and clot localization. […] The animals were then sacrificed and the amount of Tc-99m and I-125 in various organs was assessed. A Tc-99m labeled nonspecific peptide analogue containing the RYYD sequence served as a control.

platelet aggregation = platelet aggregation (Homo sapiens, UniProt P05106+P08514); assay: Inhibition of platelet aggregation (Payton Aggregometer, ADP); assay type: cell-based
Chain of platelet aggregation (P08514 32-1039): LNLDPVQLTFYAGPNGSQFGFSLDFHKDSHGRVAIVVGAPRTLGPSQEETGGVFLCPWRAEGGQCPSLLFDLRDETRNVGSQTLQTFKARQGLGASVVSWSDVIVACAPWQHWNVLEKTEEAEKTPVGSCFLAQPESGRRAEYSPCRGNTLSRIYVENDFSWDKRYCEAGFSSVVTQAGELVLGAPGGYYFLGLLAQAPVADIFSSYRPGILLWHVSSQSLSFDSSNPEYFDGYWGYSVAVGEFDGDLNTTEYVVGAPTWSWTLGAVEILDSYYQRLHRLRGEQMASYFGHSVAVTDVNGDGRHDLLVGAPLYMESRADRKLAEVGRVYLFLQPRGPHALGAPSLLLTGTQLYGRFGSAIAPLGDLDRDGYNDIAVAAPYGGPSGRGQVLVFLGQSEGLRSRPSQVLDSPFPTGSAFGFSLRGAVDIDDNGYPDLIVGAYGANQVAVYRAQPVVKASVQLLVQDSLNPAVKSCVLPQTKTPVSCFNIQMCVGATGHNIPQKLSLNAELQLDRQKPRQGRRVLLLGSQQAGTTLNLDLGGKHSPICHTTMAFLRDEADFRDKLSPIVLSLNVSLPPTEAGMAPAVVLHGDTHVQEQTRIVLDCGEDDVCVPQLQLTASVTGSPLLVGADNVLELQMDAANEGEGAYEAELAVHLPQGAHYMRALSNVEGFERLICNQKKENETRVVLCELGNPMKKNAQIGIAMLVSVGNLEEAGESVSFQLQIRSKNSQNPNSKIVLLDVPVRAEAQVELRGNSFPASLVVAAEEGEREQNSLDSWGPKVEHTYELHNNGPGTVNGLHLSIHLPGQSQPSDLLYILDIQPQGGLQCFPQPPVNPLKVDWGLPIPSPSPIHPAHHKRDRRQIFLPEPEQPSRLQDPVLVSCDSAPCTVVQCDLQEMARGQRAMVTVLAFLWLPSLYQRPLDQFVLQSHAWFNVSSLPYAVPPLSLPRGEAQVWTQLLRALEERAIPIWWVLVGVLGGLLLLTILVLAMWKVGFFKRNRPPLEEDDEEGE
Chain of platelet aggregation (P05106 27-788): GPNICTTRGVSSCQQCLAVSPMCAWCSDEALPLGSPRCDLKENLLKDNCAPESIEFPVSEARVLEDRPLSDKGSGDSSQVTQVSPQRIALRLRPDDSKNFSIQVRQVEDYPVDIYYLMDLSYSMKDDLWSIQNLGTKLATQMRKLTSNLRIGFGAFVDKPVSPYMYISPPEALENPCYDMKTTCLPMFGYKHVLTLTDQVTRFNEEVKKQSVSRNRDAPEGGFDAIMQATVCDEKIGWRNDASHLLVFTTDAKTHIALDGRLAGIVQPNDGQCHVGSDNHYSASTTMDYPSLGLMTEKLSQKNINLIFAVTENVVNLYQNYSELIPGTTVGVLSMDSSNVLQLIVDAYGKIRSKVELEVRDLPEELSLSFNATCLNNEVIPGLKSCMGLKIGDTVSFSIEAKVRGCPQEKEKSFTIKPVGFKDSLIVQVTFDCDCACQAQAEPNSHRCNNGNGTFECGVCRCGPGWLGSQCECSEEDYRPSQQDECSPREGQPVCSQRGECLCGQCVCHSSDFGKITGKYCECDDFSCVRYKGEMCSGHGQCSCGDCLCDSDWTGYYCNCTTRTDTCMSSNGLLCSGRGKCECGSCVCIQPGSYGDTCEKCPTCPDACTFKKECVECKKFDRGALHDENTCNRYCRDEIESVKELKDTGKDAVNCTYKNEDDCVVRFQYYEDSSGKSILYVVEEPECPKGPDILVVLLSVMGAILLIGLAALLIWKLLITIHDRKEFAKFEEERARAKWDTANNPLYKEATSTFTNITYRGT
Method: The ability of the fusion peptides and of peptides comprising the binding domain of the fusion peptides to inhibit platelet aggregation was assessed as follows:
[…], human plasma was prepared by centrifugation of citrated human plasma at 900 rpm, Sorvall Rc-3, for 20 minutes at room temperature. 0.5 mL of the platelet solution was placed in the cuvette of a Payton Aggregometer, followed by 50 μL of a solution containing various concentrations, up to 200 μM, of the peptide being assayed. After 1 minute, 5 μL of 10 mM ADP in water was added. The aggregation rate was assessed by a change in the slope of the absorbance curve.

[3] = target: T1, activated platelet fibrinogen receptor (Homo sapiens, UniProt P05106+P08514); assay: Inhibition of binding of 125-I PAC-1 antibody to activated platelets; settings: inhibition of 125-I PAC-1 binding to platelets activated with PMA or ADP, 37 degrees C, 1 hr; read-out: IC-50 (μM) Binding
T1 construct: Platelets were isolated by placing 7 ml of platelet-rich-plasma onto a 50 ml column of Sepharose 2-B; endogenous in cells
T1 sequence (P08514 32-887 limits assumed): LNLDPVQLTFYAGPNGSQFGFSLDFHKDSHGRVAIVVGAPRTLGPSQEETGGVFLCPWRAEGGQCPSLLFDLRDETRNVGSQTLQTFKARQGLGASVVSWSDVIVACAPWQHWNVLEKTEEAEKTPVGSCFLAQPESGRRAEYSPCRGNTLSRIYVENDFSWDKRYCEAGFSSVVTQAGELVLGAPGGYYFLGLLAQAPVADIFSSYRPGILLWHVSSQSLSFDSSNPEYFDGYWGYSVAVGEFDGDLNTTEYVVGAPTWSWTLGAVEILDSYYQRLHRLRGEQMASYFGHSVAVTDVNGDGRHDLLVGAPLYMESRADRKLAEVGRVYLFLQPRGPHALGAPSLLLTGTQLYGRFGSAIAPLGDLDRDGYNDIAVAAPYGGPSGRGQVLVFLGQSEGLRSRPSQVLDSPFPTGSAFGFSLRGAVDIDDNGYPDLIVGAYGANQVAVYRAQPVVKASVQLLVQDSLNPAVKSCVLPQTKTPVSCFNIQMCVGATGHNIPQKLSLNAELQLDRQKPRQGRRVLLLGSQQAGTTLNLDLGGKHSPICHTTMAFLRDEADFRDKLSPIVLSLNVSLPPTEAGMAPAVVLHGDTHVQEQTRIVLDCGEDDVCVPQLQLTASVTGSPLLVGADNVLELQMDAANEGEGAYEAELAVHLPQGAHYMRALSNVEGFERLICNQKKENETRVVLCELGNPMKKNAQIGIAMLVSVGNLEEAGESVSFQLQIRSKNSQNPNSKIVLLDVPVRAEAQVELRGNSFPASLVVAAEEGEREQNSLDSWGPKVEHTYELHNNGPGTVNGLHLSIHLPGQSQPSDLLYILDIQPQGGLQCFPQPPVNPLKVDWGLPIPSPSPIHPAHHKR
T1 sequence (P08514 891-1039 partner limits assumed): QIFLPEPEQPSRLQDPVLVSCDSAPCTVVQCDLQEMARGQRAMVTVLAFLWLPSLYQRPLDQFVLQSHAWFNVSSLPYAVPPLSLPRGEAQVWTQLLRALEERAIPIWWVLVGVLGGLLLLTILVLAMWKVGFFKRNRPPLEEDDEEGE
T1 sequence (P05106 27-788): as the sequence (P05106 27-788) above
Method: The ability of the fusion peptides and of peptides comprising the binding domain of the peptides, specific for the activated platelet fibrinogen receptor, to inhibit the binding of PAC-1 antibody was assessed as follows:
Platelets were isolated by placing 7 ml of platelet-rich-plasma onto a 50 ml column of Sepharose 2-B equilibrated in Walshes 1% BSA buffer (1.0 g NaCl, 0.2 g KCl, 0.2 g MgCl2, 0.45 g NaH 0.9 g HEPES, 1.0 g BSA and 1.0 g dextrose in sufficient water to make exactly 1 liter), pH 7.45. The cloudiest tubes were pooled to obtain 14 ml of platelets (approximately 300,000/μl). The peptide in Walshes 1% BSA buffer and 20,000 CpM of 125-I-pAC 1 (5 μCi/μg) was added to one ml of this in a microfuge tube. Platelets were next activated with 0.1 μM phorbol myristate acetate or 10 μM ADP at 37 degrees C. After 1 hr, platelets were pelleted at top speed in a horizontal microfuge, washed gently, and the tube bottom removed with dog nail clippers and it, supernatant and wash were counted in a […]. […] Varied levels of peptide were examined and IC-50 was determined from a graph of % inhibition versus peptide concentration.

## acARRSPSYYRGDAGPYYAMDYKCTCCA-a [PAC-2]
[1]; inhibitor 1 mM Bestatin, human platelet-poor plasma
  Half-Life: 8.5 min
[1]; no inhibitor, 125-I labeled peptide in citrated human platelet-poor plasma
  Half-Life: 2.1 min

## CC(=O)N[C@@H](CO)C(=O)N[C@@H](Cc1ccc(O)cc1)C(=O)NCC(=O)N[C@@H](CCCNC(=N)N)C(=O)NCC(=O)N[C@@H](CC(=O)O)C(=O)N[C@H](C(=O)N[C@@H](CCCNC(=N)N)C(=O)NCC(=O)N[C@@H](CC(=O)O)C(=O)N[C@@H](Cc1ccccc1)C(=O)N[C@@H](CCCCN)C(=O)N[C@@H](CS)C(=O)N[C@H](C(=O)N[C@@H](CS)C(=O)N[C@@H](CS)C(=O)N[C@@H](C)C(N)=O)[C@@H](C)O)C(C)C [PAC-8] (Ac-SYGRGDVRGDFKCTCCA-NH2)
[2]; gamma camera
  time after injection at which the clot is imaged: ≤ 18 min
[2]; gamma camera (FIG. 3D)
  persistence of the clot image: ≥ 4 h
[2]
  localization to / uptake in the clot in gamma camera images (in words): localizes to and images the clot

## acARRSPSYYRYYDAGPYYAMDYKCTCCA-a [PAC-3]
[2]
  localization to / uptake in the clot in gamma camera images (in words): no uptake in the region of the clot
Platelet aggregation
  inhibition of platelet aggregation and/or PAC-1 binding (in words): lack of platelet inhibition

## CC(=O)N[C@@H](CCCCN)C(=O)N[C@@H](CS)C(=O)N[C@H](C(=O)N[C@@H](CS)C(=O)N[C@@H](CS)C(=O)N[C@@H](C)C(=O)N1CCC[C@H]1C(=O)N[C@@H](CO)C(=O)N[C@@H](Cc1ccc(O)cc1)C(=O)N[C@@H](Cc1ccc(O)cc1)C(=O)N[C@@H](CCCNC(=N)N)C(=O)NCC(=O)N[C@@H](CC(=O)O)C(=O)NCC(=O)N[C@@H](C)C(=O)N1CCC[C@H]1C(=O)N[C@@H](CO)C(=O)N[C@@H](Cc1ccc(O)cc1)C(=O)N[C@@H](Cc1ccc(O)cc1)C(=O)N[C@@H](CCCNC(=N)N)C(=O)NCC(=O)N[C@@H](CC(=O)O)C(=O)NCC(=O)N[C@@H](C)C(=O)N1CCC[C@H]1C(=O)N[C@@H](CO)C(=O)N[C@@H](Cc1ccc(O)cc1)C(=O)N[C@@H](Cc1ccc(O)cc1)C(=O)N[C@@H](CCCNC(=N)N)C(=O)NCC(=O)N[C@@H](CC(=O)O)C(=O)N[C@@H](C)C(N)=O)[C@@H](C)O [PAC-15] (Ac-KCTCCAPSYYRGDGAPSYYRGDGAPSYYRGDA-NH2)
[2]
  localization to / uptake in the clot in gamma camera images (in words): clearly localize and permit imaging of the clot

## ARRSPSYYRGDAGPYYAMDY
[3]
  IC50: 10 µM

## ARRSPSYYRYDAGPYYAMDY
[3]
  IC50: 90 µM

## CC(=O)N1CCC[C@H]1C(=O)N[C@@H](CO)C(=O)N[C@@H](Cc1ccc(O)cc1)C(=O)N[C@@H](Cc1ccc(O)cc1)C(=O)N[C@@H](CCCNC(=N)N)C(=O)NCC(=O)N[C@@H](CC(=O)O)C(=O)NCC(=O)N[C@@H](C)C(=O)N1CCC[C@H]1C(=O)N[C@@H](CO)C(=O)N[C@@H](Cc1ccc(O)cc1)C(=O)N[C@@H](Cc1ccc(O)cc1)C(=O)N[C@@H](CCCNC(=N)N)C(=O)NCC(=O)N[C@@H](CC(=O)O)C(=O)NCC(=O)N[C@@H](C)C(=O)N1CCC[C@H]1C(=O)N[C@@H](CO)C(=O)N[C@@H](Cc1ccc(O)cc1)C(=O)N[C@@H](Cc1ccc(O)cc1)C(=O)N[C@@H](CCCNC(=N)N)C(=O)NCC(=O)N[C@@H](CC(=O)O)C(=O)N[C@@H](C)C(=O)N[C@@H](CCCCN)C(=O)N[C@@H](CS)C(=O)N[C@H](C(=O)N[C@@H](CS)C(=O)N[C@@H](CS)C(=O)N[C@@H](C)C(N)=O)[C@@H](C)O [PAC-16] (Ac-PSYYRGDGAPSYYRGDGAPSYYRGDAKCTCCA-NH2)
[2]
  localization to / uptake in the clot in gamma camera images (in words): clearly localize and permit imaging of the clot
